A melting point compilation (Tetko et al.; mined from patent text by program, amines drawn as free bases though some values may be those of a salt)

First: Cn1nc(-c2cc(C=O)c(Cl)cc2F)c(Cl)c1C(F)(F)F
Second: Cc1cc(-n2c(=O)cc(C(F)(F)F)n(C)c2=O)c(F)cc1C#N
The melting point of the first is lower: 70 to 72 °C for the first, 186 °C for the second.

Compared with Nc1ccc(F)c(-c2ccncc2)n1, Nc1nc(-c2ccc(Cl)cc2)c(CCC(=O)O)s1 is lower in melting point: 189 to 190 °C for the first, 116 to 118 °C for the second.

First: [N-]=[N+]=NC1=C([C@H]2CC[C@H](c3ccc(Cl)cc3)CC2)C(=O)c2ccccc2C1=O
Second: Cc1c(C(=O)Nc2ccc(N3CCC(c4ccccc4)CC3)c(C#N)c2)cnn1-c1ccc(Cl)cc1
The melting point of the first is lower: 130 to 135 °C for the first, 186 to 188 °C for the second.

Going from C#Cc1ccc(NC(=O)N[C@H](CCC)C(=O)Nc2ccc(N3CCOCC3=O)cc2)cc1 to Cc1ccc(COc2ccc(C(=O)NC[C@@H](C(=O)NO)N3CCCCC3)cc2)c2ccccc12, the melting point falls from 182 °C to 123 °C.

First: O=C(O)CCOc1cccc2c1CCc1sc(SCC(c3ccccc3)c3ccccc3)nc1-2
Second: COC(=O)Cc1c(-c2ccccc2)nn(-c2ccccc2)c1-c1ccccc1
The melting point of the first is higher: 123 to 125 °C for the first, 80.5 to 81.5 °C for the second.

First: CN1C=C(c2ccccc2)c2cccc(NC(=O)C=NO)c2C1
Second: Cc1ccnc(-c2ccccc2)c1C(=O)O
The melting point of the first is lower: 151 °C for the first, 210 to 212 °C for the second.

Compared with CCOP(=O)(/C=C/c1cn(-c2ccccc2)nc1OCc1ccc(OCc2sc(-c3ccccc3)nc2C)c(OC)c1)OCC, CCOc1nn(Cc2ccc(OCc3csc(-c4ccccc4)n3)nc2)cc1CCC(=O)O is higher in melting point: 113 to 114 °C for the first, 121 to 122 °C for the second.

First: Nc1c(S)ccc2ccccc12
Second: Nc1nc2ccc3ccccc3c2s1
The melting point of the first is lower: 36 to 37 °C for the first, 258 to 260 °C for the second.

First: CC(=O)Nc1nc2ccc(S(=O)(=O)n3c(CCCC(=O)O)cc4nc(Cl)ccc43)cc2s1
Second: O=C(O)CCCc1ccc2sc3ccccc3c2c1
The melting point of the first is higher: 270 °C for the first, 127 to 128 °C for the second.

Compared with O=C(NCc1ccc(Cl)cc1)c1cn(CCN2CCCC2)c2ccc(C#CCO)cc2c1=O, COc1ccc(CCn2cnc3ccc(-c4cccc(C(=O)NCCN5CCCC5)c4)nc32)cc1OC is lower in melting point: 189 to 192 °C for the first, 106 to 107 °C for the second.

First: COc1ccc(C=CC(=O)c2ccccc2Br)c(OC)c1
Second: CCOC(=O)c1ccc(-c2ccc(OC)cc2)cc1
The melting point of the first is lower: 91.3 to 91.8 °C for the first, 103 to 104 °C for the second.

First: O=[N+]([O-])c1ccccc1Nc1ccccc1O
Second: O=C(O)CC1(CC(=O)O)c2ccccc2C(=O)c2ccccc21
The melting point of the first is lower: 67 to 70 °C for the first, 230 to 232 °C for the second.

First: CC(=O)c1cccc(-c2ccc3nc(-c4ccc(Cl)cc4)cn3c2)c1
Second: CSc1nnc(C(O)(c2ccc(Cl)cc2)c2ccc3nc(C)cc(-c4cccc(Cl)c4)c3c2)n1C (stereo not drawn)
The melting point of the first is higher: 173 to 175 °C for the first, 142 °C for the second.

First: CC(C)CC(NC(=O)CNc1ccc(Cl)cc1)C(=O)NCC#N (stereo not drawn)
Second: Cc1c(Sc2ccc(Cl)cc2)c2cc(NS(C)(=O)=O)ccc2n1CC(=O)O
The melting point of the first is lower: 131 to 134 °C for the first, 214 °C for the second.

First: CC[C@H](N)C(=O)N1c2ccccc2C[C@H]1C(=O)NC
Second: NC(=O)N1C(=O)Cc2cc(NC(=O)c3ccccc3)ccc21
The melting point of the first is lower: 138 to 139 °C for the first, 223 to 226 °C for the second.

First: O=[N+]([O-])c1ccc(Oc2ccc(C3(c4ccc(Oc5ccc([N+](=O)[O-])cc5)cc4)CCC(c4ccccc4)CC3)cc2)cc1
Second: N#Cc1ccc(CN2CCN(c3cc(-c4ccccc4)c4ccc(=O)ccn34)CC2)cc1
The melting point of the first is higher: 216 to 218 °C for the first, 196 °C for the second.

First: CCCCn1cnc2c(OC)nc(Nc3ccc(OCC)nc3)nc21
Second: CCn1c(=O)ccc2cnc(Nc3ccc(OC)cc3)nc21
The melting point of the first is lower: 174 to 176 °C for the first, 196 to 197 °C for the second.

First: Cc1nnn(Cc2cc(-c3ncco3)ccc2-c2ccccc2S(=O)(=O)Nc2onc(C)c2C)n1
Second: N#Cc1ccccc1-c1cccc(-n2cnc3cc(-c4cnco4)ccc32)c1
The melting point of the first is lower: 168 to 174 °C for the first, 222 to 226 °C for the second.

First: COc1ccc(C#Cc2ccc(OC3CN4CCC3CC4)nn2)cc1 (stereo not drawn)
Second: COc1ccc(C#N)cc1/C=C/C(=O)N[C@H](CO)CN1CCC(C(=O)c2ccc(Cl)cc2)CC1
The melting point of the first is higher: 163 to 165 °C for the first, 162 to 163 °C for the second.

First: N#CCN1C(=O)COc2cc(F)c(N3C(=O)C4=C(CCCC4)C3=O)cc21
Second: CC1Sc2c(C(=O)O)c(=O)c3cc(F)c(N4CCNC(=O)C4)cc3n21 (stereo not drawn)
The melting point of the first is higher: 216 to 220 °C for the first, 198 to 200 °C for the second.

First: C=C(c1ccc(C(=O)O)cc1)C(O)(Cn1cncn1)c1ccc(F)cc1F (stereo not drawn)
Second: Oc1ccc(-c2ncn(CC(O)(Cn3cncn3)c3ccc(F)cc3F)n2)cc1 (stereo not drawn)
The melting point of the first is higher: 189 to 190 °C for the first, 120 to 127 °C for the second.

First: Cc1ccc(C)c(OCCCC(C)(C)C(=O)Nc2cccc([N+](=O)[O-])c2)c1
Second: CCCCOc1c(-c2cc(C=CC(=O)O)ccc2OC)cc(C(C)(C)C)cc1C(C)(C)C
The melting point of the first is lower: 93 to 94 °C for the first, 204 to 206 °C for the second.

Compared with CN(CCNc1ccc2nc(NC(=O)c3ccc(C(C)(C)C)cc3)cn2n1)C(=O)OC(C)(C)C, CC(=O)NC[C@H]1CN(c2ccc(C(=O)c3ccc4cnc(C)cn34)cc2)C(=O)O1 is higher in melting point: 200 to 201 °C for the first, 248 to 250 °C for the second.

First: CSc1ccc(C(C#N)=NO)cc1
Second: N#CCc1nc(C(=O)c2ccc(Cl)cc2)no1
The melting point of the first is higher: 132 to 133 °C for the first, 81 to 84 °C for the second.

Compared with O=[N+]([O-])c1cccc2c1nnn2SC(Cl)(Cl)Cl, O=C1CNN(Cc2ccc(Cl)cc2Cl)C(=O)N1 is higher in melting point: 136 to 138 °C for the first, 167 °C for the second.

Compared with CCNC(=O)[C@@H]1C[C@H](OS(C)(=O)=O)CN1C(=O)OC(C)(C)C, COC(=O)C(C)(C)Cc1[nH]c2cc(OC)ccc2c1SC(C)(C)C is lower in melting point: 138 to 140 °C for the first, 133 °C for the second.

First: O=C(CSc1nc[nH]n1)NC/C=C\COc1cc(CN2CCCCC2)ccn1
Second: COc1cc2nc(N3CCN(C(=O)C=Cc4ccoc4)CC3)nc(N)c2cc1OC
The melting point of the first is lower: 65 to 67 °C for the first, 252 to 253 °C for the second.

Compared with CCc1cc2c(cc1OCc1ccccc1)CCC1C2CCC2(C)C(=CCO)CCC12 (stereo not drawn), O=C(O)C1Cc2ccc(OCc3ccccc3)cc2O1 (stereo not drawn) is higher in melting point: 61 to 62 °C for the first, 118 to 119 °C for the second.

Compared with CCCCCCCCCCc1nc(N(C)C)nc(OC)c1O, CCCc1c(OCCCOc2ccc(C(=O)CCCCC(=O)O)cc2F)ccc(C(C)=O)c1O is higher in melting point: 59 to 60 °C for the first, 106 to 107 °C for the second.

Compared with O=S1(=O)c2cccc3cccc(c23)N1CCN1CCN(c2nsc3ccccc23)CC1, O=c1[nH]c2ccc3ccccc3c2n(CCc2ccccc2)c1=O is higher in melting point: 162 °C for the first, 268 °C for the second.

Compared with CCCc1c(O)c(Cl)cc(C(=O)OC)c1O, CON(Cc1ccc(Cl)c(Cl)c1)C(=O)C1=C(O)C(=O)N(C)C1 is higher in melting point: 75 to 76 °C for the first, 149 °C for the second.

Compared with CO/N=C1\CCCC[C@@H]1NC(=O)c1cc(-c2ccc(Cl)cc2)c(O[C@@H](C)C(F)(F)F)cn1, COC(=O)c1ccc(C(C(N)=O)C(C)c2cc(Cl)ccc2N2CCCC(C)C2)cc1 (stereo not drawn) is higher in melting point: 123 to 125 °C for the first, 160 to 162 °C for the second.

First: CNC(=O)Oc1ccc2onc(NCCN3CCOCC3)c2c1
Second: Cc1c(N2CCC(N(C)C)C(C)(C)C2)c(F)cc2c(=O)c(C(=O)O)cn(C3CC3)c12 (stereo not drawn)
The melting point of the first is lower: 135 to 136 °C for the first, 209 to 210 °C for the second.

First: FC(F)Oc1cccc(-c2ccc3nnn(Cc4ccc5ncccc5c4)c3n2)c1
Second: COc1cccc(Cn2cnc3c(Br)c(NC4=NCCN4)ccc32)c1
The melting point of the first is lower: 122 to 125 °C for the first, 177 to 178 °C for the second.

First: O=C1N=C(N2CCNCC2)SC1=Cc1cccc(-c2cc(F)c(O)c(C34CC5CC(CC(C5)C3)C4)c2)c1
Second: O=C(Nc1ccc(Oc2ncnc3cc4c(cc23)OCCOCCOCCO4)c(F)c1)c1c[nH]cc(-c2ccc(F)cc2)c1=O
The melting point of the first is higher: 230 to 233 °C for the first, 188 to 190 °C for the second.

First: COC(=O)C1=C(C)NC(C)=C(C(=O)n2ccnc2)C1c1cccc2nonc12 (stereo not drawn)
Second: Nc1ncc(-c2ccc(F)cc2F)nc1C(=O)Nc1cccnc1
The melting point of the first is lower: 195 °C for the first, 232 to 234 °C for the second.

First: O=C(N1CCC2(C=Cc3ccccc32)CC1)N1CCCc2ccccc21
Second: CC1(C)C2CC=C(c3ccc(C(=O)N4Cc5cccn5Cc5ccccc54)cc3)C1C2 (stereo not drawn)
The melting point of the first is higher: 130 to 133 °C for the first, 118 to 119 °C for the second.

First: NC(=S)NCC(c1ccccc1)c1ccccc1
Second: COc1ccc(C2c3ccccc3C(c3ccccc3)C2C(=O)O)cc1 (stereo not drawn)
The melting point of the first is higher: 205 to 207 °C for the first, 164 to 166 °C for the second.

Compared with CCOP(=O)(Cc1ccc(C(=O)Nc2ccc(Br)cc2C#N)cc1)OCC, NC(CO)(CO)CCc1ccc(C(=O)CCCCc2ccccc2)cc1 is lower in melting point: 165 to 166 °C for the first, 126 to 127 °C for the second.

First: O=C1OC(CO)CN1c1ccc(O)cc1 (stereo not drawn)
Second: CC(C)CCN1C(=O)C2(COc3cc(O)ccc32)c2ccccc21 (stereo not drawn)
The melting point of the first is higher: 189 °C for the first, 101 to 103 °C for the second.

Compared with CCC(Nc1ccc(OC)nc1)n1nnc2ccccc21 (stereo not drawn), CCCOc1ccccc1-c1nc2cc(SC)ccc2c(=O)[nH]1 is higher in melting point: 109 to 110 °C for the first, 156 to 158 °C for the second.

First: Cc1cc2c(s1)S(=O)(=O)N=C(NC(C)C)N2
Second: CC(C)c1ccc(CCCN(C)[C@H]2CC[C@H](c3ccc4[nH]c(=O)oc4c3)CC2)cc1
The melting point of the first is higher: 272 to 273 °C for the first, 179 to 181 °C for the second.

First: CCCCc1nc(Cl)c(CO)n1Cc1ccc(-c2ccccc2-c2n[nH]c(=O)o2)cc1
Second: Cn1c(CON2C(=O)c3ccccc3C2=O)ncc(OCc2ccccc2)c1=O
The melting point of the first is lower: 163 to 164 °C for the first, 170 °C for the second.

Compared with CCCc1csc(NS(=O)(=O)c2cccc(Cl)c2C)n1, CN(CC(=O)O)C(=O)Nc1ccc(Cl)c(Cl)c1 is lower in melting point: 169 °C for the first, 103 to 105 °C for the second.

First: Cc1nnc2ccc(-c3cccc(NC=O)c3)nn12
Second: O=C(Nc1cccnc1)N1CCN(c2nc(-c3ccccc3)cs2)CC1
The melting point of the first is higher: 265 to 268 °C for the first, 74 to 75 °C for the second.

First: COc1cc(Nc2nccc(-c3ccc(N4CCNC(CCO)C4)nc3)n2)cc(OC)c1OC (stereo not drawn)
Second: CC(C)Cn1c(C(=O)O)c(-c2cccs2)c2cc(OCc3ccccc3)ccc2c1=O
The melting point of the first is lower: 150 to 151 °C for the first, 171 to 172 °C for the second.

First: O=C(C=NO)Nc1cc(Cl)cc(Cl)c1
Second: CCCN(C(=O)OCC(Cl)(Cl)Cl)C1CN(C(=O)Nc2ccc(C(F)(F)F)cc2)N=C1c1ccc(Cl)cc1 (stereo not drawn)
The melting point of the first is higher: 196 to 197 °C for the first, 172 to 173 °C for the second.

Compared with CN(C)C(=O)C1CC2CCC1c1[nH]c3ccccc3c12 (stereo not drawn), COc1cc2c(cc1C)CCC2c1cnc[nH]1 (stereo not drawn) is lower in melting point: 231 to 232 °C for the first, 68 to 70 °C for the second.

Compared with CS(=O)(=O)Nc1cc2c(cc1Oc1ccccc1)C(NS(C)(=O)=O)C=C2 (stereo not drawn), N#CCCOC(=O)C=Cc1ccccc1 is lower in melting point: 154 °C for the first, 62 to 65 °C for the second.
